Data reported in patent publication US12522602B2, “Derivatives having 2,3-dihydro-1H-indene or 2,3-dihydrobenzofuran moiety or pharmaceutically acceptable salt thereof and pharmaceutical compositions comprising the same” (YUHAN CORPORATION, priority 2019, dated 2026).

The molecules below were run on GM1 production in Jurkat cells (assay: cells). Conditions: Homo sapiens, Jurkat, 72 h.
Format: cell-based

Question: With `COCOc1ccccc1-c1ccc2c(c1)CC(C)(C)C2NC(=O)O[C@@H]1CN2CCC1CC2` (stereo partly drawn) [Example 102, (S)-quinuclidin-3-yl (5-(2-(methoxymethoxy)phenyl)-2,2-dimethyl-2,3-dihydro-1H-inden-1-yl)carbamate] as the molecule, how does the IC50 read?
Answer: 17.4 nM

Question: Which IC50 does the source give for `COc1cccc(-c2ccc3c(c2)CC(C)(C)C3NC(=O)O[C@@H]2CN3CCC2CC3)c1` (stereo partly drawn) [Example 103, (S)-quinuclidin-3-yl (5-(3-methoxyphenyl)-2,2-dimethyl-2,3-dihydro-1H-inden-1-yl)carbamate] here?
Answer: 19.5 nM

Question: Which IC50 does the source give for `CCOc1cccc(-c2ccc3c(c2)CC(C)(C)C3NC(=O)O[C@@H]2CN3CCC2CC3)c1` (stereo partly drawn) [Example 104, (S)-quinuclidin-3-yl (5-(3-ethoxyphenyl)-2,2-dimethyl-2,3-dihydro-1H-inden-1-yl)carbamate] here?
Answer: 16.9 nM

Question: With `CC(C)Oc1cccc(-c2ccc3c(c2)CC(C)(C)C3NC(=O)O[C@@H]2CN3CCC2CC3)c1` (stereo partly drawn) [Example 105, (S)-quinuclidin-3-yl (5-(3-isopropoxyphenyl)-2,2-dimethyl-2,3-dihydro-1H-inden-1-yl)carbamate] as the molecule, how does the IC50 read?
Answer: 15.2 nM

Question: How did the IC50 turn out when `CN(C)c1cccc(-c2ccc3c(c2)CC(C)(C)C3NC(=O)O[C@@H]2CN3CCC2CC3)c1` (stereo partly drawn) [Example 106, (S)-quinuclidin-3-yl (5-(3-(dimethylamino)phenyl)-2,2-dimethyl-2,3-dihydro-1H-inden-1-yl)carbamate] was run?
Answer: 5.8 nM

Question: Which IC50 does the source give for `CSc1cccc(-c2ccc3c(c2)CC(C)(C)C3NC(=O)O[C@@H]2CN3CCC2CC3)c1` (stereo partly drawn) [Example 107, (S)-quinuclidin-3-yl (2,2-dimethyl-5-(3-(methylthio)phenyl)-2,3-dihydro-1H-inden-1-yl)carbamate] here?
Answer: 6.3 nM

Question: `CCc1cccc(-c2ccc3c(c2)CC(C)(C)C3NC(=O)O[C@@H]2CN3CCC2CC3)c1` (stereo partly drawn) [Example 108, (S)-quinuclidin-3-yl (5-(3-ethylphenyl)-2,2-dimethyl-2,3-dihydro-1H-inden-1-yl)carbamate] was tested. Which IC50 did it give?
Answer: 7.6 nM

Question: For `CC(C)c1cccc(-c2ccc3c(c2)CC(C)(C)C3NC(=O)O[C@@H]2CN3CCC2CC3)c1` (stereo partly drawn) [Example 109, (S)-quinuclidin-3-yl (5-(3-isopropylphenyl)-2,2-dimethyl-2,3-dihydro-1H-inden-1-yl)carbamate], which IC50 is on record?
Answer: 7.8 nM

Question: Which IC50 does the source give for `CC(C)(C)c1cccc(-c2ccc3c(c2)CC(C)(C)C3NC(=O)O[C@@H]2CN3CCC2CC3)c1` (stereo partly drawn) [Example 110, (S)-quinuclidin-3-yl (5-(3-(tert-butyl)phenyl)-2,2-dimethyl-2,3-dihydro-1H-inden-1-yl)carbamate] here?
Answer: 15.1 nM

Question: With `CC1(C)Cc2cc(-c3ccc4c(c3)OC(F)(F)O4)ccc2C1NC(=O)O[C@@H]1CN2CCC1CC2` (stereo partly drawn) [Example 111, (S)-quinuclidin-3-yl (5-(2,2-difluorobenzo[d][1,3]dioxol-5-yl)-2,2-dimethyl-2,3-dihydro-1H-inden-1-yl)carbamate] as the molecule, how does the IC50 read?
Answer: 32 nM

Question: Which IC50 does the source give for `CC1(C)Cc2cc(-c3ccc4c(c3)OCCO4)ccc2C1NC(=O)O[C@@H]1CN2CCC1CC2` (stereo partly drawn) [Example 112, (S)-quinuclidin-3-yl (5-(2,3-dihydrobenzo[b][1,4]dioxin-6-yl)-2,2-dimethyl-2,3-dihydro-1H-inden-1-yl)carbamate] here?
Answer: 35.6 nM

Question: Which IC50 does the source give for `CC1(C)Cc2cc(-c3ccc4c(c3)CCO4)ccc2C1NC(=O)O[C@@H]1CN2CCC1CC2` (stereo partly drawn) [Example 113, (S)-quinuclidin-3-yl (5-(2,3-dihydrobenzofuran-5-yl)-2,2-dimethyl-2,3-dihydro-1H-inden-1-yl)carbamate] here?
Answer: 54.8 nM

Question: How did the IC50 turn out when `CC1(C)Cc2cc(-c3cccc(OCCN4CCOCC4)c3)ccc2C1NC(=O)O[C@@H]1CN2CCC1CC2` (stereo partly drawn) [Example 114, (S)-quinuclidin-3-yl (2,2-dimethyl-5-(3-(2-morpholinoethoxy)phenyl)-2,3-dihydro-1H-inden-1-yl)carbamate] was run?
Answer: 33.7 nM

Question: Which IC50 does the source give for `CC1(C)Cc2cc(-c3ccc(OCCF)cc3)ccc2C1NC(=O)O[C@@H]1CN2CCC1CC2` (stereo partly drawn) [Example 115, (S)-quinuclidin-3-yl (5-(4-(2-fluoroethoxy)phenyl)-2,2-dimethyl-2,3-dihydro-1H-inden-1-yl)carbamate] here?
Answer: 38.3 nM

Question: For `CC1(C)Cc2cc(-c3ccc(OCC(F)(F)F)cc3)ccc2C1NC(=O)O[C@@H]1CN2CCC1CC2` (stereo partly drawn) [Example 116, (S)-quinuclidin-3-yl (2,2-dimethyl-5-(4-(2,2,2-trifluoroethoxy)phenyl)-2,3-dihydro-1H-inden-1-yl)carbamate], which IC50 is on record?
Answer: 16.7 nM

Question: With `CC1(C)Cc2cc(-c3ccc(OCCN4CCOCC4)cc3)ccc2C1NC(=O)O[C@@H]1CN2CCC1CC2` (stereo partly drawn) [Example 117, (S)-quinuclidin-3-yl (2,2-dimethyl-5-(4-(2-morpholinoethoxy)phenyl)-2,3-dihydro-1H-inden-1-yl)carbamate] as the molecule, how does the IC50 read?
Answer: 41.8 nM

Question: How did the IC50 turn out when `CC1(C)Cc2cc(-c3ccnc(C(F)(F)F)c3)ccc2C1NC(=O)O[C@@H]1CN2CCC1CC2` (stereo partly drawn) [Example 118, (S)-quinuclidin-3-yl (2,2-dimethyl-5-(2-(trifluoromethyl)pyridin-4-yl)-2,3-dihydro-1H-inden-1-yl)carbamate] was run?
Answer: 38.4 nM

Question: For `CC1(C)Cc2cc(-c3cc(Cl)ncc3Cl)ccc2C1NC(=O)O[C@@H]1CN2CCC1CC2` (stereo partly drawn) [Example 119, (S)-quinuclidin-3-yl (5-(2,5-dichloropyridin-4-yl)-2,2-dimethyl-2,3-dihydro-1H-inden-1-yl)carbamate], which IC50 is on record?
Answer: 38.3 nM

Question: Which IC50 does the source give for `CN1CCOc2cc(-c3ccc4c(c3)CC(C)(C)C4NC(=O)O[C@@H]3CN4CCC3CC4)ccc21` (stereo partly drawn) [Example 120, (S)-quinuclidin-3-yl (2,2-dimethyl-5-(4-methyl-3,4-dihydro-2H-benzo[b][1,4]oxazin-7-yl)-2,3-dihydro-1H-inden-1-yl)carbamate] here?
Answer: 28.4 nM

Question: How did the IC50 turn out when `COc1ccc(Cl)c(-c2ccc3c(c2)CC(C)(C)C3NC(=O)O[C@@H]2CN3CCC2CC3)c1` (stereo partly drawn) [Example 121, (S)-quinuclidin-3-yl (5-(2-chloro-5-methoxyphenyl)-2,2-dimethyl-2,3-dihydro-1H-inden-1-yl)carbamate] was run?
Answer: 4.7 nM

Question: How did the IC50 turn out when `COc1ccc(-c2ccc3c(c2)CC(C)(C)C3NC(=O)O[C@@H]2CN3CCC2CC3)cc1Cl` (stereo partly drawn) [Example 122, (S)-quinuclidin-3-yl (5-(3-chloro-4-methoxyphenyl)-2,2-dimethyl-2,3-dihydro-1H-inden-1-yl)carbamate] was run?
Answer: 50.8 nM

Question: With `COc1ccc(-c2ccc3c(c2)CC(C)(C)C3NC(=O)O[C@@H]2CN3CCC2CC3)c(Cl)c1` (stereo partly drawn) [Example 123, (S)-quinuclidin-3-yl (5-(2-chloro-4-methoxyphenyl)-2,2-dimethyl-2,3-dihydro-1H-inden-1-yl)carbamate] as the molecule, how does the IC50 read?
Answer: 9.3 nM

Question: How did the IC50 turn out when `COc1cccc(-c2ccc3c(c2)CC(C)(C)C3NC(=O)O[C@@H]2CN3CCC2CC3)c1Cl` (stereo partly drawn) [Example 124, (S)-quinuclidin-3-yl (5-(2-chloro-3-methoxyphenyl)-2,2-dimethyl-2,3-dihydro-1H-inden-1-yl)carbamate] was run?
Answer: 22.3 nM

Question: How did the IC50 turn out when `COc1cc(-c2ccc3c(c2)CC(C)(C)C3NC(=O)O[C@@H]2CN3CCC2CC3)ccc1Cl` (stereo partly drawn) [Example 125, (S)-quinuclidin-3-yl (5-(4-chloro-3-methoxyphenyl)-2,2-dimethyl-2,3-dihydro-1H-inden-1-yl)carbamate] was run?
Answer: 9.5 nM

Question: For `COc1ccc(-c2ccc3c(c2)CC(C)(C)C3NC(=O)O[C@@H]2CN3CCC2CC3)c(Cl)c1Cl` (stereo partly drawn) [Example 126, (S)-quinuclidin-3-yl (5-(2,3-dichloro-4-methoxyphenyl)-2,2-dimethyl-2,3-dihydro-1H-inden-1-yl)carbamate], which IC50 is on record?
Answer: 50.5 nM
